Assays:
[1] = test system: MC38 cells, a murine colon adenocarcinoma line; experiment: MC38 syngeneic colon adenocarcinoma model, 1A7.gr1 and Compound 1; assay type: in vivo, C57BL/6 mice
Experimental: Female C57BL/6 mice were subcutaneously implanted with 2×10^7 MC38 cells, a murine colon adenocarcinoma line; in 100 μL PBS in the right frank. After inoculation, mice were randomized into 4 groups according to tumor volume. Mice were treated with vehicle (PEG400/0.1N HCL in saline, 40/60) as a control. 1A7.gr1 (sequence previously disclosed in US 20150307617) was confirmed to bind to mouse OX40 in house.
The 1A7.gr1 antibody was administered at 2 mg/kg per week by intraperitoneal injection as a single agent. […] The 1A7.gr1 antibody in combination with Compound 1 was administered at the same dosages and routes of administration as described above. Tumor volumes were determined twice weekly.

[2] = test system: tyrosine kinases, including RET, CBL, CHR4q12, DDR and Trk; details: cited from earlier work
[3] = test system: CT26WT cells, a murine colon cancer cell line; experiment: CT26WT syngeneic colon tumor model, OX86 and Compound 1; assay type: in vivo, BALB/c mice; details: OX86 0.08 mg/kg QW i.p.; Compound 1 15 mg/kg QD p.o.
Experimental: Female BALB/c mice were subcutaneously implanted with 1×10^5 CT26WT cells, a murine colon cancer cell line, in 100 μL PBS in the right flank. After inoculation, the mice were randomized into 4 groups with 20 animals in each group according to the inoculation order. The mice were treated with vehicle (PEG400/0.1N HCl in saline, 40/60) as a negative control.
As monotherapy, OX86 was administered at 0.08 mg/kg once per week (QW) by intraperitoneal (i.p.) injection
Compound 1 was administered as a single therapy at 15 mg/kg once per day (QD) by oral gavage (p.o.). OX86 was administered at 0.08 mg/kg once per week (QW) by intraperitoneal (i.p.) injection in combination with Compound 1 at 15 mg/kg once per day (QD) by oral gavage (p.o.). Tumor volume was determined twice weekly in two dimensions using a caliper, and was expressed in mm3 using the formula: V=0.5(a×b2) where a and b are the long and short diameters of the tumor, respectively. Data is presented as mean tumor volume ±standard error of the mean (SEM). Tumor growth inhibition (TGI) is calculated using the following formula: […]

[4] = biological target: T1, full-length human OX40 expressed on HuT78/OX40 cells (human, UniProt P43489 29-277); experiment: FACS; cells not named in the sentence (taken as OX40-expressing cells); reference 445-2
T1 sequence: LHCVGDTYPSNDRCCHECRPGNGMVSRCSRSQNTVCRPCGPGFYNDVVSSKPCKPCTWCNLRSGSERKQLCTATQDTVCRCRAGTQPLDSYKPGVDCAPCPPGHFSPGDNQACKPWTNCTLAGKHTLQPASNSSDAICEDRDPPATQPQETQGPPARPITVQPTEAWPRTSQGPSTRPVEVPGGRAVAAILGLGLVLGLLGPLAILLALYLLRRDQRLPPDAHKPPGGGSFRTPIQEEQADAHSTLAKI

[5] = biological target: T2, recombinant OX40 protein with a His tag (Cat: 10481-H08H, Sino Biological) (UniProt P43489 29-216); experiment: Biacore; OX40 protein not given; reference 445-2
T2 construct: Bought protein; not shown: His tag
T2 sequence (looked up): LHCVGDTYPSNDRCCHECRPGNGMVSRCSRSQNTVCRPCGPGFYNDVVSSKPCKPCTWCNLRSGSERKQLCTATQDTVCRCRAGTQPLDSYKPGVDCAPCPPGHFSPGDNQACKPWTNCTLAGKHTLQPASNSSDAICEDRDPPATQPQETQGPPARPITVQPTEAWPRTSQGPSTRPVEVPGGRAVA

[6] = biological target: T3, interaction between OX40 and OX40 ligand (Mus musculus, UniProt P47741); details: cited from earlier work
T3 sequence (P47741 20-272): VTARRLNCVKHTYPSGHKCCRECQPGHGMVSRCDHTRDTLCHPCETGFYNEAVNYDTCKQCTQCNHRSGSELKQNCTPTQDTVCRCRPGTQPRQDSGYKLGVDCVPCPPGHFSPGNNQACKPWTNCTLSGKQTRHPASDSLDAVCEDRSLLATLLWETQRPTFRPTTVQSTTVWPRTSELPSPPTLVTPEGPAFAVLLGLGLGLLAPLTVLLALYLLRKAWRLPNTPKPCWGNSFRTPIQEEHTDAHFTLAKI
T3 sequence (P43488 1-198 partner): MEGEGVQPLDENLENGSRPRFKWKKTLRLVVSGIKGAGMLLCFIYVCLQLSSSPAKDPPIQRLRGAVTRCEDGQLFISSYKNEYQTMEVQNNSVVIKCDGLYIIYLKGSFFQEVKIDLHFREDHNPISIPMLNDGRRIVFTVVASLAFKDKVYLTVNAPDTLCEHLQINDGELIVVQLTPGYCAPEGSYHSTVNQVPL

[7] = 1A7.gr1 2 mg/kg QW i.p., Compound 1 15 mg/kg QD p.o.

In the case of COCCNCc1ccc(-c2cc3nccc(Oc4ccc(NC(=O)C5(C(=O)Nc6ccc(F)cc6)CC5)cc4F)c3s2)nc1 [Compound 1], the “Mean Tumor Volume on Day 29 (mean ± SEM)” value [1, 7] is reported as 712.5 mm^3, the “TGI (%) on Day 22” value [1, 7] is reported as 80% and the “complete response / mice being tumor free on day 22” value ([1]; 1A7.gr1 2 mg/kg QW×4, Compound 1 15 mg/kg QD×22) is reported as 80%. The “inhibition of tyrosine kinases” value [2] was “potent inhibition”, the “Mean Tumor Volume on Day 24 (mean ± SEM)” value [3] was 177.4 ± 28.5 mm^3 and the “TGI (%) on Day 24” value [3] was 91%. For the same molecule, the “Tumor Free Animal (%) on Day 69 (complete responders)” value [3] was 5%.

B1: 445-2 variant with K28T in the heavy chain and S24R in the light chain (antibody, V domains shown)
VH: QVQLVQSGAEVKKPGSSVKVSCKASGYTFTSYIIHWVRQAPGQGLEWMGYINPYNEGTRYAQKFQGRVTLTADKSTSTAYMELSSLRSEDTAVYYCARGYYGSSYAMDYWGQGTTVTVSS
VL: DIQMTQSPSSLSASVGDRVTITCRASQGISNYLNWYQQKPGKAIKLLIYDASTLYSGVPSRFSGSGSGTDFTLTISSLQPEDFATYYCQQYSKLPYTFGGGTKVEIK
In the case of B1, the “fold increase to the EC50 over the original 445-2 antibody” value [4] is reported as 1.7 fold.

B2: 445-2 variant with Y27G in the heavy chain and S24R in the light chain (antibody, V domains shown)
VH: QVQLVQSGAEVKKPGSSVKVSCKASGGKFTSYIIHWVRQAPGQGLEWMGYINPYNEGTRYAQKFQGRVTLTADKSTSTAYMELSSLRSEDTAVYYCARGYYGSSYAMDYWGQGTTVTVSS
VL: DIQMTQSPSSLSASVGDRVTITCRASQGISNYLNWYQQKPGKAIKLLIYDASTLYSGVPSRFSGSGSGTDFTLTISSLQPEDFATYYCQQYSKLPYTFGGGTKVEIK
In the case of B2, the “fold increase to the KD over the original 445-2 antibody” value [5] is reported as 1.7 fold.

B3: OX86: rat anti-mouse OX40 antibody of WO2016/057667 engineered with mouse IgG2a constant regions, VH SEQ ID NO: 32, VL SEQ ID NO: 33 (antibody, V domains shown)
VH: QVQLKESGPGLVQPSQTLSLTCTVSGFSLTGYNLHWVRQPPGKGLEWMGRMRYDGDTYYNSVLKSRLSISRDTSKNQVFLKMNSLQTDDTAIYYCTRDGRGDSFDYWGQGVMVTVSS
VL: DIVMTQGALPNPVPSGESASITCRSSQSLVYKDGQTYLNWFLQRPGQSPQLLTYWMSTRASGVSDRFSGSGSGTYFTLKISRVRAEDAGVYYCQQVREYPFTFGSGTKLEIK
modifications: mouse IgG2a constant regions
For B3, the “blocking of OX40-OX40 ligand interaction” value [6] is listed as “does not block the interaction between OX40 and OX40 ligand”, the “Mean Tumor Volume on Day 24 (mean ± SEM)” value [3] is listed as 308.5 ± 115.8 mm^3 and the “TGI (%) on Day 24” value [3] is listed as 84%. For the same molecule, the “Tumor Free Animal (%) on Day 69 (complete responders)” value [3] was 50%.

Reference: US20230022859A1, “TREATMENT OF CANCER WITH ANTI-OX40 ANTIBODIES AND MULTI-KINASE INHIBITORS” (BEIGENE, LTD., priority 2019, published 2023)
